{"source": "patent US10253107B2", "about": "“Use of endocytosis inhibitors and antibodies for cancer therapy” (THE UNIVERSITY OF QUEENSLAND, priority 2012, dated 2019)", "key": {"dynamin": {"test_system": "dynamin", "conditions": "cited from earlier work"}, "HeLa cells [1]": {"test_system": "HeLa cells", "assay": "Dynasore 24 hour treatment, HeLa cells", "format": "cell-based"}, "HeLa cells [2]": {"test_system": "HeLa cells", "conditions": "dose dependent, previous study (23), read-out: IC50 of dynasore mediated endocytosis inhibition; cited from earlier work"}, "A431 cells [3]": {"test_system": "A431 cells", "assay": "MHC class I and class II immunofluorescence in A431 cells", "format": "cell-based, human", "procedure": "(§1) FIG. 23 is a photographic representation showing example panels for correlation between inhibited EGFR endocytosis and MHC class I and class II status. (A) Immunofluorescence showing manipulation of EGFR trafficking using a dynamin inhibitor. A431 cells were serum-starved for 3 hours and then treated with different concentrations of dynasore (0, 60 and 100 μM) for 0.5 and 24 hours. 15 minutes EGF-Alexa488 (100 ng/mL) uptakes were performed to monitor the trafficking of the ligand bound EGFRs (in green). The nuclei are shown in blue. (B) immunofluorescence showing changes in MHC class I and class II distributions caused by altered EGFR trafficking. A431 cells were treated with different concentrations of dynasore (0, 60 and 100 μM) for 0.5 hours, followed by fixation and permeabilization. MHC class I and class II were then labeled with primary antibodies PE-HLA-ABC and PE-HLA-DR, respectively, followed by secondary antibody labeling (Alexa 594). MHC I and II are shown in red while the nuclei are shown in blue."}, "A431 cells [4]": {"test_system": "A431 cells", "assay": "Dynasore 24 hour treatment, A431 cells", "format": "cell-based, human", "procedure": "as §1"}, "[5]": {"test_system": "EGFR endocytosis in A431 cells", "assay": "EGF-Alexa488 uptake immunofluorescence (ligand-induced EGFR endocytosis)", "format": "cell-based, human", "conditions": "15 min EGF-Alexa488 uptake", "procedure": "as §1\nFIG. 29 is a photographic representation showing Dyngo4a inhibition of EGFR endocytosis. […] Immunofluorescence was conducted to confirm the manipulation of EGFR trafficking using Dyngo4a. A431 cells were serum-starved for 3 hours and then treated with different concentrations of (A) Dyngo4a (0 and 30 μM) for 30 min. […] The nuclei are shown in blue. […]"}, "PBMC": {"test_system": "PBMC", "assay": "MTS/MTT toxicity of dynamin inhibitors to PBMC", "format": "cell-based", "conditions": "for toxicity to PBMC: MTS/MTT, single agent", "procedure": "Dyngo4a (0 and 30 μM) was added at the end of the incubation. 10% Triton was added to A431 cells after 24-hour incubation with PBMCs for cell death control. The ADCC effects were measured by MTS assay. The cell viability was presented as OD values at 490 nm. The average of OD values released from background was subtracted from effector cell controls (A-II) and target/effector tests (A-III).\n(§2) FIG. 30 is a graphical representation of a multi-parametric FACS analysis showing that manipulation of EGFR trafficking with dynamin inhibitors, Dyngo4a and Pyrimidyn-7, results in enhanced ADCC in cetuximab-sensitive and insensitive cells. cetuximab-dependent ADCC assays were performed essentially according to the procedures outlined in FIGS. 27 and 28. […] (C) Percentage of specific KJD cell death is shown in the presence of dynamin inhibitors only. […] (E) An MTS assay was conducted in the absence of PBMC to assess toxicity of compounds in the absence of ADCC. […] Triton X100 is added as a control for maximum cell death. (F) An MTS assay was conducted in the absence of PBMC to assess toxicity of compounds in the absence of ADCC. […] Triton X100 is added as a control for maximum cell death. (G) An MTS assay was conducted to assess possible toxicity of dynamin inhibitors to PBMC cells. […] Triton X100 is added as a control for maximum cell death.\n(§3) Compounds Dyngo4a and Pyrimidyn-7 were tested in both multi-variant FACS analysis assay as described in Example 4 and by MTT assay. In particular, compounds were tested for improvement of cetuximab-dependent ADCC against cetuximab-sensitive A431 cells and cetuximab-resistant KJD cells and for single agent toxicity."}, "KJD cells [6]": {"test_system": "KJD cells", "assay": "MTS/MTT toxicity assay in the absence of PBMC, KJD", "format": "cell-based", "conditions": "absence of PBMC/ADCC, single agent or with cetuximab", "procedure": "as §2, §3"}, "A431 cells [7]": {"test_system": "A431 cells", "assay": "Flow cytometry-based ADCC assay on A431 cells", "format": "cell-based, human", "conditions": "FACS; for effect of dynamin inhibitor on cetuximab-dependent ADCC of A431 cells: inhibitor + cetuximab + PBMC", "method": "Flow cytometry was performed on triplicate tubes per treatment. Target cells were harvested and labeled with 0.5 μM CFSE (Life technologies) for 10 minutes, followed by washing to remove excess dye. […] 30 μM Dyngo4a was added at given time points as described in figure legends. After the incubation, 5 ul of 7-AAD (BD Pharmingen) was added into each tube to indicate the target cells that were killed. Samples were analyzed by flow cytometry (BD FACSCanto). The percentage of specific target cell death was calculated using the following formula:"}, "A431 cells [8]": {"test_system": "A431 cells", "assay": "Immunofluorescence of cetuximab-EGFR internalization, A431", "format": "cell-based, human", "conditions": "4-hour time-course, Dyngo4a added", "procedure": "(§4) A431 cells were seeded on coverslips in 12-well plates and incubated overnight to reach 80% confluence. […] 30 μM dyngo4a was added at given time points as described in figure legends. The cells were then washed three times in ice cold PBS and fixed in 4% PFA/PBS for 30 minutes, followed by permeabilization in 0.1% TritonX/PBS (PBTX) for 20 minutes. […] The coverslips were mounted on slides in Prolong Gold (Life technologies). Images were acquired using a Zeiss 510 Meta confocal with a 63× objective."}, "KJD cells [9]": {"test_system": "KJD cells", "assay": "Immunofluorescence of cetuximab-EGFR trafficking, KJD", "format": "cell-based, human", "conditions": "incubation with Dyngo4a", "procedure": "FIG. 28 is a photographic and graphical representation of a multi-parametric FACS analysis showing that manipulation of EGFR trafficking with dynamin inhibitors results in improved ADCC in cetuximab-insensitive cells. (A) Immunofluorescence imaging of cetuximab trafficking status in KJD cells. […] 7-AAD was added at the end of the 4-hour assay to label dead cells prior to FACS analysis. (B) Gating strategies used for the assessment of specific target cell death. FITC indicates CFSE while PerCP-Cy5.5 indicates 7-AAD. The dead target cells appear in the upper right quadrant, CFSE painted and 7-AAD positive. (C.1) KJD cell death under different conditions. (C.2) The percentage of specific KJD cell death was calculated. Data shown are an average of 3 experiments+/−SEM by Two-Way ANOVA with Bonferroni post test. ****: P≤0.0001; ***: P≤0.001; **: P≤0.01; *: P≤0.05. ns: no significance.\nas §4"}, "KJD cells [10]": {"test_system": "KJD cells", "assay": "Flow cytometry-based ADCC assay on KJD cells", "format": "cell-based, human", "conditions": "for effect of dynamin inhibitor on cetuximab-dependent ADCC of KJD cells: inhibitor + cetuximab + PBMC", "method": "Flow cytometry was performed on triplicate tubes per treatment. Target cells were harvested and labeled with 0.5 μM CFSE (Life technologies) for 10 minutes, followed by washing to remove excess dye. […] 30 μM Dyngo4a was added at given time points as described in figure legends. After the incubation, 5 ul of 7-AAD (BD Pharmingen) was added into each tube to indicate the target cells that were killed. Samples were analyzed by flow cytometry (BD FACSCanto)."}, "A431 cells [11]": {"test_system": "A431 cells", "assay": "MTS/MTT toxicity assay in the absence of PBMC, A431", "format": "cell-based", "procedure": "as §2, §3"}, "A431 cells [12]": {"test_system": "A431 cells", "assay": "Cetuximab mediated ADCC MTS assay", "format": "cell-based, human", "conditions": "Dyngo4a 30 μM + cetuximab 60 μg/mL + PBMC, vs cetuximab single treatment", "method": "MTS assays were performed to measure absorbance at 490 nm. The cell viability is presented as the percentage of untreated viable cells. […] (B-I) MTS assays were performed to measure absorbance at 490 nm. (B-II) The target cell viability is presented as the percentage of untreated viable cells and calculated following the formula: % of untreated cells=(experimental OD−PBMC OD)/(A431 maximum OD−medium OD)×100%\nTarget cells (A431, number=2,500 per well) were seeded in 96-well round bottom plates and allowed to settle down for 2 hours. […] After 24 hours incubation, 20 μL MTS reagent was added into each well and incubated at 37° C. in 5% CO2 for 2 hours. The optical density (OD value) was read at 490 nm by a microplate spectrophotometer."}, "[13]": {"conditions": "A431, dynasore 0, 60, 100 μM, 0.5 hours"}}, "note": "“Also recorded” adds a separate entry of the source. Read-outs that look alike come from different tables or passages of the source."}
{"smiles": "N#C/C(=C\\c1ccc(O)c(O)c1)C(=O)NCCCNC(=O)/C(C#N)=C/c1ccc(O)c(O)c1", "note": "[Bis-T-22, 2-cyano-N-{3-[2-cyano-3-(3,4-dihydroxyphenyl)-acryloylamino]-propyl}-3-(3-,4-dihydroxyphenyl)-acrylamide]", "values": [{"measurement": "basal dynamin GTPase activity", "setting": "dynamin; absence of PS liposomes, dynamin rings", "result": "stimulates basal dynamin GTPase activity"}, {"measurement": "inhibition of helical dynamin", "setting": "dynamin; dynamin activated by phosphatidylserine (PS) liposomes", "result": "potent in vitro inhibitor of dynamin"}]}
{"smiles": "O=C(N/N=C/c1ccc(O)c(O)c1)c1cc2ccccc2cc1O", "note": "[Dynasore, 3-hydroxynaphthalene-2-carboxylic acid (3,4-dihydroxybenzylidene) hydrazide]", "values": [{"measurement": "cell morphology after 24 hours dynasore", "setting": "HeLa cells [1]", "result": "appeared apoptotic or to have cytokinetic defects"}, {"measurement": "IC50", "setting": "HeLa cells [2]", "result": "~15", "unit": "µM"}, {"measurement": "plasma membrane levels of MHCI", "setting": "A431 cells [3]; A431, EGF stimulation coupled with dynasore inhibition", "result": "no longer detectable"}, {"measurement": "MHCI signal", "setting": "A431 cells [3]; [13]", "result": "increasing MHCI signal"}, {"measurement": "MHCII signal", "setting": "A431 cells [3]; [13]", "result": "decrease in MHCII signal"}, {"measurement": "cell morphology after 24 hours dynasore", "setting": "A431 cells [4]", "result": "cellular nuclear condensation"}, {"measurement": "ligand-induced EGFR endocytosis", "setting": "[5]", "result": "successfully functioned as an endocytosis inhibitor"}]}
{"smiles": "O=C(N/N=C/c1cc(O)c(O)cc1O)c1cc2ccccc2cc1O", "note": "[Dyngo-4a]", "values": [{"measurement": "cell viability of PBMCs (effector cells)", "setting": "PBMC; Dyngo4a alone and with cetuximab, MTS, vs negative and 10% Triton controls", "result": "did not cause large cell viability reduction in PBMCs"}, {"measurement": "toxicity to PBMC", "setting": "PBMC", "result": "no toxicity as a single agent; also recorded: no significant toxicity"}, {"measurement": "toxicity to KJD cells", "setting": "KJD cells [6]", "result": "no toxicity as a single agent; also recorded: no significant toxicity on KJD cells"}, {"measurement": "effect of Dyngo4a on Herceptin-dependent ADCC of A431 cells", "setting": "A431 cells [7]; Dyngo4a + Herceptin + PBMC", "result": "enhance both cetuximab-dependent and Herceptin-dependent ADCC"}, {"measurement": "effect of dynamin inhibitor on cetuximab-dependent ADCC of A431 cells", "setting": "A431 cells [7]", "result": "increased level of cetuximab-induced ADCC; also recorded: improve cetuximab-dependent ADCC; also recorded: enhance both cetuximab-dependent and Herceptin-dependent ADCC"}, {"measurement": "surface and internalized levels of cetuximab", "setting": "A431 cells [8]", "result": "increases surface levels of cetuximab and decreases internalized levels"}, {"measurement": "plasma membrane expression of EGFR", "setting": "KJD cells [9]", "result": "increased the plasma membrane expression of EGFR"}, {"measurement": "cetuximab-induced ADCC with Dyngo4a, KJD cell killing", "setting": "KJD cells [10]; Dyngo4a 30 μM + cetuximab 60 μg/mL + PBMC, 4 hours", "result": "greater than 40%"}, {"measurement": "effect of Dyngo4a on Herceptin-dependent ADCC of KJD cells", "setting": "KJD cells [10]; Dyngo4a + Herceptin + PBMC, FACS", "result": "enhance Herceptin-dependent ADCC of KJD cells even more so"}, {"measurement": "tumor cell killing by inhibitor alone", "setting": "KJD cells [10]; Dyngo4a alone, without cetuximab", "result": "did not kill tumor cells"}, {"measurement": "effect of dynamin inhibitor on cetuximab-dependent ADCC of KJD cells", "setting": "KJD cells [10]; FACS", "result": "improve cetuximab-dependent ADCC; also recorded: enhance both cetuximab-dependent and Herceptin-dependent ADCC"}, {"measurement": "toxicity to A431 cells", "setting": "A431 cells [11]", "result": "no toxicity as a single agent"}, {"measurement": "toxicity to A431 cells", "setting": "A431 cells [11]; human", "result": "no significant toxicity on A431 cells"}, {"measurement": "cetuximab mediated ADCC in presence of dynamin inhibitor (cell viability, MTS)", "setting": "A431 cells [12]", "result": "cells lost more viability"}, {"measurement": "ligand-induced EGFR endocytosis", "setting": "[5]", "result": "has an inhibitory effect on the ligand-induced EGFR endocytosis"}]}
{"smiles": "CCCCCCCCCCCCNc1cc(C)nc(NCCN(C)C)n1", "note": "[Pyrimidyn-7]", "values": [{"measurement": "toxicity to PBMC", "setting": "PBMC", "result": "showed single agent toxicity; also recorded: shows toxicity"}, {"measurement": "toxicity to KJD cells", "setting": "KJD cells [6]", "result": "showed single agent toxicity; also recorded: significant death of KJD cells"}, {"measurement": "effect of dynamin inhibitor on cetuximab-dependent ADCC of A431 cells", "setting": "A431 cells [7]", "result": "improve cetuximab-dependent ADCC"}, {"measurement": "cell death by ADCC in the absence of cetuximab", "setting": "KJD cells [10]; KJD cells (FIG. 30C), inhibitor only", "result": "Some increase in cell death"}, {"measurement": "effect of dynamin inhibitor on cetuximab-dependent ADCC of KJD cells", "setting": "KJD cells [10]; FACS", "result": "improve cetuximab-dependent ADCC"}, {"measurement": "toxicity to A431 cells", "setting": "A431 cells [11]; MTS/MTT, absence of PBMC/ADCC, single agent or with cetuximab", "result": "showed single agent toxicity; also recorded: significant death of A431 cells"}]}
